Measured values taken from patent US20160202242A1, “CELL DEATH-INDUCING AGENT, CELL GROWTH-INHIBITING AGENT, AND PHARMACEUTICAL COMPOSITION FOR TREATMENT OF DISEASE CAUSED BY ABNORMAL CELL GROWTH” (Nitto Denko Corporation, priority 2014, published 2016).
d = 2'-deoxy (DNA); r = 2'-OH (RNA)

Assays:
Format in all cases: cell-based, human
[1] = tested on: M7609 cells; assay: Senescence beta-galactosidase staining 13 days after inoculation, GST-π knocked down three times; conditions: GST-π siRNA 30 nM added three times
Method: (§1) As examples of cancer cells, 1×10^5 M7609 cells (human colorectal cancer cells having KRAS mutation) and PANC-1 cells (human pancreatic cancer cells having KRAS mutation) were inoculated to 6 cm Petri dishes and cultured for 18 hours in Roswell Park Memorial Institute 1640 (RPMI 1640, Sigma-Aldrich Corp.) supplemented with 10% fetal bovine serum (FBS) and 0.5% L-glutamine. The culture conditions were 37° C. and 5% CO2, unless otherwise specified. Moreover, as an example of cancer cells, 0.5×10^5 A549 cells (human lung cancer cells having KRAS mutation) were inoculated to a 6 cm Petri dish and cultured for 18 hours in a Dulbecco's modified Eagle's medium (DMEM, Sigma-Aldrich Corp.) supplemented with 10% FBS and 1% L-glutamine. Furthermore, as an example of cancer cells, 1×10^5 MIA PaCa-2 cells (human pancreatic cancer cell having KRAS mutation) were inoculated to a 6 cm Petri dish and cultured for 18 hours in DMEM supplemented with 10% FBS and 1% L-glutamine. Furthermore, as an example of cancer cells, 0.5×10^5 HCT116 cells (human colorectal cancer cells having KRAS mutation) were inoculated to a 6 cm Petri dish and cultured for 18 hours in McCoy's 5A Medium (McCoy, Sigma-Aldrich Corp.) supplemented with 10% FBS and 0.5% L-glutamine.
Whether the cell senescence as shown in FIGS. 6 to 9 was could be induced by knocking down GST-π was tested using the M7609 cells. […]

[2] = tested on: P21 mRNA; assay: P21 mRNA level quantified every day to the 4th day after siRNA addition; conditions: A549 or MIA PaCa-2 cells, siRNA 50 nM
Method: as §1, with “Furthermore, as an example of cancer cells, 0.5×10^5 HCT116 cells (human colorectal cancer cells having KRAS mutation) were inoculated to a 6 cm Petri dish and cultured for 18 hours in McCoy's 5A Medium (McCoy, Sigma-Aldrich Corp.) supplemented with 10% FBS and 0.5% L-glutamine.” left out
Moreover, as for the case where GST-π siRNA or control siRNA at a final concentration of 50 nM was added to each of the Petri dishes containing the A549 cells or the MIA PaCa-2 cells, the P21 mRNA level was similarly quantified every day from the day of addition of GST-π siRNA or control siRNA to the 4th day.

[3] = tested on: A549 cells, MIA PaCa-2 cells, PANC-1 cells, and HCT116 cells; assay: Phase difference images of cells after knockdown three times; conditions: knocked down three times; 7 days after inoculation
Method: As examples of cancer cells, 1×10^5 M7609 cells (human colorectal cancer cells having KRAS mutation) and PANC-1 cells (human pancreatic cancer cells having KRAS mutation) were inoculated to 6 cm Petri dishes and cultured for 18 hours in Roswell Park Memorial Institute 1640 (RPMI 1640, Sigma-Aldrich Corp.) supplemented with 10% fetal bovine serum (FBS) and 0.5% L-glutamine. The culture conditions were 37° C. and 5% CO2, unless otherwise specified. […]
First, for the PANC-1 cells, the MIA PaCa-2 cells, or the HCT116 cells, GST-π siRNA and P21 siRNA each at a final concentration of 25 nM, or GST-π siRNA or P21 siRNA at a final concentration of 25 nM (all added with control siRNA at a final concentration of 25 nM) were added to each of the Petri dishes, while for the A549 cells, GST-π siRNA and P21 siRNA each at a final concentration of 50 nM, or GST-π siRNA or P21 siRNA at a final concentration of 50 nM (added with control siRNA at a final concentration of 50 nM) were added to each of the Petri dishes. […] Seven days after the cell inoculation, the cells were dissociated and collected from the Petri dish by trypsin treatment, and the number of cells was counted. […]

[4] = tested on: PANC-1, MIA PaCa-2, or A549 cells; assay: Number of cells counted after 5 days of culture, single siRNA transfection; conditions: siRNA 50 nM plus control siRNA 50 nM
Method: as §1, with “Furthermore, as an example of cancer cells, 0.5×10^5 HCT116 cells (human colorectal cancer cells having KRAS mutation) were inoculated to a 6 cm Petri dish and cultured for 18 hours in McCoy's 5A Medium (McCoy, Sigma-Aldrich Corp.) supplemented with 10% FBS and 0.5% L-glutamine.” left out
Meanwhile, the influence of GST-π siRNA and/or P21 siRNA on the number of cells was tested. […] After culture for 5 days without the replacement of the medium, the cells were dissociated and collected from the Petri dish by trypsin treatment, and the number of cells was counted.

[5] = tested on: P21 mRNA; assay: P21 mRNA level by quantitative PCR 1 day after siRNA transfection; conditions: PANC-1, MIA PaCa-2, or A549 cells, GST-π siRNA 50 nM or 100 nM, vs control siRNA
Method: As examples of cancer cells, 1×10^5 M7609 cells (human colorectal cancer cells having KRAS mutation) and PANC-1 cells (human pancreatic cancer cells having KRAS mutation) were inoculated to 6 cm Petri dishes and cultured for 18 hours in Roswell Park Memorial Institute 1640 (RPMI 1640, Sigma-Aldrich Corp.) supplemented with 10% fetal bovine serum (FBS) and 0.5% L-glutamine. The culture conditions were 37° C. and 5% CO2, unless otherwise specified. Moreover, as an example of cancer cells, 0.5×10^5 A549 cells (human lung cancer cells having KRAS mutation) were inoculated to a 6 cm Petri dish and cultured for 18 hours in a Dulbecco's modified Eagle's medium (DMEM, Sigma-Aldrich Corp.) supplemented with 10% FBS and 1% L-glutamine. […]
GST-π siRNA and P21 siRNA each at a final concentration of 50 nM, GST-π siRNA or P21 siRNA at a final concentration of 50 nM (both added with control siRNA at a final concentration of 50 nM), or GST-π siRNA at a final concentration of 100 nM (without the addition of control siRNA) were added to each of the Petri dishes containing the PANC-1, MIA PaCa-2, or A549 cells. […] After culture for 1 day without the replacement of the medium, the GST-π mRNA level and the P21 mRNA level were quantified by quantitative PCR using 7300 Real Time PCR System (Applied Biosystems, Inc.).

Substance	cell senescence (flat and large cells, blue color development by galactosidase staining) [1]	expression level of P21 mRNA over time [2]	cell morphology / cell senescence-like phenotype in phase difference image [3]	number of cells, each siRNA alone [4]	amount of P21 mRNA [5]
GST-π siRNA: siRNA against GST-π; sense GGGAGGCAAGACCUUCAUUtt (SEQ ID NO: 31), antisense AAUGAAGGUCUUGCCUCCCtg (SEQ ID NO: 32) (sense GGGAGGCAAGACCUUCAUUTT; antisense AAUGAAGGUCUUGCCUCCCTG; sugars from the 5' end r19 d2, backbone not given here)	cell senescence was evoked	increased over time	became flat and large cells	the number of cells cannot be decreased with respect to the number of inoculated cells, though cell growth is inhibited	increased
P21 siRNA: siRNA against P21; sense UCCUAAGAGUGCUGGGCAUtt (SEQ ID NO: 33), antisense AUGCCCAGCACUCUUAGGAtt (SEQ ID NO: 34) (sense UCCUAAGAGUGCUGGGCAUTT; antisense AUGCCCAGCACUCUUAGGATT; sugars from the 5' end r19 d2, backbone not given here)	–	–	–	the number of cells cannot be decreased with respect to the number of inoculated cells, though cell growth is inhibited	–
